From US20210269478A1, “ADJUVANT FOR CELL CULTURE” (FUKUSHIMA MEDICAL UNIVERSITY, priority 2018, published 2021)

B1: rJAM-C: polypeptide obtained by linking the Fc region of human IgG1 to the C-terminus of the extracellular domain (Met 1-Asn 241) of human JAM-C; Sino Biological (protein)
chain: EAVNLKSSNRNPVVHEFESVELSCIITDSQTSDPRIEWKKIQDGQTTYVYFDNKIQGDLAGRTDVFGKTSLRIWNVTRSDSAIYRCEVVALNDRKEVDEITIELIVQVKPVTPVCRIPAAVPVGKTATLQCQESEGYPRPHYSWYRNDVPLPTDSRANPRFQNSSFHVNSETGTLVFNAVHKDDSGQYYCIASNDAGAARCEGQDMEVYDLN

Tests used:
[1] = tested on: stem cell markers Klf4, Nanog, c-Myc, and Sox2 in ADSCs; test: Semi-quantitative RT-PCR of stem cell markers in ADSCs cultured on coated dish; type: cell-based, murine
Source text: The result was expressed as a relative value based on the value of mIgG defined as 1. Error bar indicates standard deviation. Asterisk(s) indicate the result of the t-test; where * means P<0.05; ** means P<0.01; and *** means P<0.001.
The result was expressed as a relative value with respect to the value of vehicle defined as 1. Error bar indicates standard deviation in three experiments. Asterisk(s) indicate the result of t-test; where * means P<0.05; ** means P<0.01; and *** means P<0.001.
RNA extraction and RT-PCR were performed using a common method previously described (Sugimoto, et al., PLoS One, 2013, 10: e751062013). […] Semi-quantitative PCR was performed using the GoTaq Green Master Mix Kit (Promega) and primers [Sox2 (5′-[…]-3′ (SEQ ID NO: 23), and 5′-[…]-3′ (SEQ ID NO: 24)); c-Myc (5′-[…]-3′ (SEQ ID NO: 25), and 5′-[…]-3′ (SEQ ID NO: 26)); Nanog (5′-[…]-3′ (SEQ ID NO: 27), and 5′-[…]-3′ (SEQ ID NO: 28)); Klf4 (5′-[…]-3′ (SEQ ID NO: 29), and 5′-[…]-3′ (SEQ ID NO: 30)); and Gapdh (5′-[…]-3′ (SEQ ID NO: 31), and 5′-[…]-3′ (SEQ ID NO: 32))] to amplify the target sequences. […] Then the brightness in a region corresponding to the molecular weight of interest was quantified using the ImageJ (National Institute of Health (NIH)) and statistically analyzed.

[2] = tested on: ADSCs (adipose-derived stem cells); test: Cell proliferation assay, BrdU-positive divided by DAPI-positive cells; type: cell-based, murine
Protocol: The result was expressed as a relative value based on the value of mIgG defined as 1. Error bar indicates standard deviation. Asterisk(s) indicate the result of t-test; where * means P<0.05; ** means P<0.01; and *** means P<0.001.
The results are shown relative to the total cell number defined as 1. P-value was calculated by a chi-square test (n=353, n=501).
Cells (4×10^4 cells) were inoculated in a 6-well culture dish, and, 24 hours later, treated with 5-bromo-2′-deoxyuridine (BrdU; #B-5002, Sigma-Aldrich) at the final concentration of 10 μM for 2 hours, and then fixed with 4% PFA. Then, the sample was stained according to the method recommended by the manufacturer, and imaged with a fluorescent phase-contrast microscope (OLYMPUS IX71, Olympus Corporation) and a DP Controller. The number of BrdU-positive particles was divided by that of DAPI-positive ones to obtain a proliferated cell number.

[3] = tested on: F9 cells expressing JAM-B and JAM-C; test: Cell adhesion assay, crystal violet staining of adhered F9 cells; type: cell-based; conditions: coating at 286 ng/cm^2 in 96-well dish; 30 min after adding cells; relative to vehicle defined as 1
Protocol: JAM-C D1 (286 ng/cm^2) was added to a 96-well plastic culture dish, then F9 stem cells were added thereto, and after 30 min the number of adhered cells was measured with crystal violet staining, while performing no coating as a negative control, and using type I collagen (1,430 ng/cm^2) and rJAM-C (1,430 ng/cm^2) as positive controls. The cell number was expressed as a relative value based on the value of the vehicle defined as 1. Error bar indicates standard deviation. Asterisk(s) indicate the result of the t-test; where * means P<0.05; and *** means P<0.001.
(§1) For each of recombinant soluble JAM-C (polypeptide obtained by linking the Fc region of human IgG1 to the C-terminus of the extracellular domain (Met 1-Asn 241) of human JAM-C; Sino Biological) and murine IgG (GE Healthcare), 20, 100, or 500 ng volume thereof was diluted in 50 μL PBS and disposed into a 96-well round-bottom plate, which was then left standing at 30° C. for 12 hours. As a positive control, 500 ng of collagen Cellmatrix type I-A (Nitta Gelatin Inc.) was processed in the same manner. […]
After washing twice with PBS, ADSCs were detached using a 0.25% trypsin/1 mM EDTA solution and inoculated to the above plate and cultured in a CO2 incubator at 37° C. for 30 min. […] Finally, 50 μL of 5% SDS was used for lysis, and the absorbance was measured at 560 nm wavelength. […]

[4] = tested on: ADSCs (adipose-derived stem cells); test: Cell adhesion assay, crystal violet staining of adhered ADSCs; type: cell-based; conditions: coating at 20, 100, and 500 ng per well in 96-well plate; 30 min after adding cells; versus murine IgG control
Protocol: The rJAM-C, or murine IgG (mIgG) as a negative control (both in 20, 100, and 500 ng (57, 286, and 1,430 ng/cm^2, respectively)), and type I collagen (500 ng) as a positive control were added to a 96-well plastic culture dish, and then ADSCs were added. After 30 min, the number of adhered cells was measured by crystal violet staining, and the relative absorbance was measured. The absorbance was expressed by a relative absorbance based on the result of the vehicle defined as 1. Error bar indicates standard deviation. Asterisk(s) indicate the result of t-test; where * means P<0.05; and *** means P<0.001.
as §1
After washing twice with PBS, ADSCs were detached using a 0.25% trypsin/1 mM EDTA solution and inoculated to the above plate and cultured in a CO2 incubator at 37° C. for 30 min. […] Finally, 50 μL of 5% SDS was used for lysis, and the absorbance was measured at 560 nm wavelength.

| Molecule | expression of stem cell markers Nanog, Klf4, Sox2, and c-Myc ([1]; ADSCs in 6-well dish coated at 52 ng/cm^2, relative to vehicle defined as 1) | proliferation ability (BrdU-positive / DAPI-positive cells) ([2]; ADSCs in 6-well dish coated at 52 ng/cm^2, chi-square test) | adhesion of F9 cells (adhered cell number) [3] | adhesion of ADSCs (adherent cell number, relative absorbance) [4] | expression of stem cell markers Klf4, Nanog, c-Myc, and Sox2 ([1]; ADSCs in 12-well dish coated at 132 ng/cm^2, cultured 48 hours, relative to mIgG defined as 1) | proliferation ability (BrdU-positive / DAPI-positive cells) ([2]; ADSCs in 6-well dish coated at 104 ng/cm^2, relative to mIgG defined as 1) |
| --- | --- | --- | --- | --- | --- | --- |
| DPRIEWKKI [JAM-C D1] | significantly increased | significantly increased | significantly increased | – | – | – |
| B1 | – | – | – | significantly increased | significantly increased | about 2 fold |
